Source: patent US9045491B2, “Thienyl [3,2-D] pyrimidin-4-one compounds, preparation method, pharmaceutical compositions and use thereof” (SHANGHAI INSTITUTE OF MATERIA MEDICA, CHINESE ACADEMY OF …, priority 2011, dated 2015)
Each block holds one molecule with its values, some of them ahead of it.

Key:
human DPP IV = target: T1, human DPP IV (Homo sapiens, UniProt P27487); test: DPP IV activity screening (Ala-Pro-AMC fluorescence); assay type: biochemical
T1 construct: extracellular fragment of protease DPP IV (aa29-766); made in house; host or cells: baculovirus expression system Bac-to-Bac
How it was run: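 DPP IV activity is taken as the linear rate of fluorescence change at 460 nm. Samples are dissolved in DMSO and screened at a single concentration (e.g. 20 μg/mL). Dose-response data are fit to a variable-slope sigmoidal model with bottom and top fixed at 0 and 100.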

Human DPP 9 = target: T2, Human DPP 9 (Homo sapiens, UniProt Q86TI2); test: DPP 9 activity screening (Ala-Pro-AMC fluorescence); assay type: biochemical; details: N.I. = No Inhibition
T2 construct: made in house; host or cells: insect cells, baculovirus Bac-to-Bac
How it was run: (§1)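 Insect-cell baculovirus-expressed human enzymes hydrolyse Ala-Pro-AMC; AMC release monitored kinetically as fluorescence rate (ex 355/em 460 nm). Primary screen at a single concentration (e.g. 20 μg/mL); dose–response fitted to variable-slope sigmoid with bottom/top fixed at 0 and 100.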

human DPP 8 = target: T3, human DPP 8 (Homo sapiens, UniProt Q6V1X1); test: DPP 8 activity screening (Ala-Pro-AMC fluorescence); assay type: biochemical; details: N.I. = No Inhibition
T3 construct: made in house; host or cells: insect cells, baculovirus Bac-to-Bac
How it was run: as §1

[1] = target: dipeptidyl peptidase 7 (DPP 7) (Homo sapiens, UniProt Q9UHL4); test: DPP 7 activity screening; assay type: biochemical; details: N.I. = No Inhibition
How it was run: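 Sample dissolved in DMSO, final DMSO kept at a level not affecting activity; tested at a single concentration from preliminary screening (e.g. 20 μg/mL). Dose-response data fitted to sigmoidal variable-slope model with bottom and top fixed at 0 and 100.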

FAP = target: T4, FAP (Homo sapiens, UniProt Q12884); test: FAP inhibition (Table 1); assay type: biochemical; details: N.I. = No Inhibition
T4 sequence (Q12884 1-760): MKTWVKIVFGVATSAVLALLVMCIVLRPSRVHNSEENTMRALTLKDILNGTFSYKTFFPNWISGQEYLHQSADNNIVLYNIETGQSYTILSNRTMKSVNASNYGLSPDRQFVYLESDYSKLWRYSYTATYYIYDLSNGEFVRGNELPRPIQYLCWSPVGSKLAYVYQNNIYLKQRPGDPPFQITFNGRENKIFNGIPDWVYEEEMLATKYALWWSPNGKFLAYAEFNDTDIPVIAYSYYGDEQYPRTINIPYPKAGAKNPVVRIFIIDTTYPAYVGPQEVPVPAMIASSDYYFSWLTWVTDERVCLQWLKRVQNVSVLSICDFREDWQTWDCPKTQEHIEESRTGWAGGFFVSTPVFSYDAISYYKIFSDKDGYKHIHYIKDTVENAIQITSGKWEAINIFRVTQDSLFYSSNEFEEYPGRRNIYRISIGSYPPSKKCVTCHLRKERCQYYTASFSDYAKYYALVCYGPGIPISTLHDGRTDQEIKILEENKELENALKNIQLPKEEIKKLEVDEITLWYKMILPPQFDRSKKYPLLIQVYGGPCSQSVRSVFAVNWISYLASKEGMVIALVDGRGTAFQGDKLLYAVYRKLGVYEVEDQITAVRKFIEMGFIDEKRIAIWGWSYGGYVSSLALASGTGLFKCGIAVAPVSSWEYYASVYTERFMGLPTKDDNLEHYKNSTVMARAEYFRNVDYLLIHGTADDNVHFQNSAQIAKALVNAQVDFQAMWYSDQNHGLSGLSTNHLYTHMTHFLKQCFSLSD

normal ICR mouse = test: Oral glucose tolerance test (OGTT), acute hypoglycemic effect of single oral dose; assay type: in vivo; details: single dose 3 mg/kg by gavage, glucose 2.5 g/kg after 6 hours, FIGS. 7-10
Method: Acute hypoglycemic effect of single dose through mouth on the normal ICR mouse
Animal: ICR mouse (8-10 weeks old, sex: male, weight: 25-30 g, purchased from Shanghai SLAC Laboratory Animal Center).
1. Two days before the experiment, the food consumption was recorded and the daily food consumption of each animal was calculated;
2. The animals fasted overnight (⅓ of daily food consumption was provided, about 2 g);
3. The blood glucose was measured on the second day.
4. The medicament was administrated through gavage (1 mouse/min). After 6 hours, the blood glucose was measured. Glucose was administrated through gavage according to the body weight (2.5 g/kg). The blood glucose value was monitored at 30 min, 60 min, 90 min, and 120 min after administration.

DPP IV = target: T5, DPP IV (Mus musculus, UniProt P28843); test: DPP IV inhibitory activity in vivo: DPP IV activity in plasma of ICR mouse after single oral dose; details: oral 3 mg/kg, compared with Alogliptin and Vildagliptin (LAF237), FIG. 1-6
T5 construct: from tissue; host or cells: plasma of ICR mouse
Method: Animals: ICR mouse (8-10 weeks old; sex: male; 25 g-30 g of body weight, purchased from Shanghai SLAC Laboratory Animal Center).
Meanwhile the solvent group was used as blank control. The blood was taken from orbital venous plexus of the mouse before administration, and 30, 60, 2 h, 4 h, 6 h, 8 h and […] after administration, respectively and loaded into Eppendorf tube (Qizhong Industrial (Shanghai) co., Ltd.) treated by anticoagulant. The plasma was obtained by centrifugation and DPP IV activity was determined.

[2] = Safety evaluation: single dose 100 mg/kg by gavage, one week observation; assay type: in vivo, ICR mouse
Method: After grouping, each compound was administrated once through gavage according to the dose of 100 mg/kg at the same time.

[3] = normal ICR mouse, 100 mg/kg single dose, 7th day
[4] = normal ICR mouse, 100 mg/kg single dose, 1 d after administration
[5] = normal ICR mouse, 100 mg/kg single dose, 2 d after administration
[6] = normal ICR mouse, 100 mg/kg single dose, 3 d after administration
[7] = normal ICR mouse, 100 mg/kg single dose, 4 d after administration
[8] = normal ICR mouse, 100 mg/kg single dose, 5 d after administration
[9] = normal ICR mouse, 100 mg/kg single dose, 6 d after administration
[10] = normal ICR mouse, 100 mg/kg single dose, 7 d after administration
[11] = normal ICR mouse, 100 mg/kg single dose, before administration

T2 sequence (Q86TI2 whole entry): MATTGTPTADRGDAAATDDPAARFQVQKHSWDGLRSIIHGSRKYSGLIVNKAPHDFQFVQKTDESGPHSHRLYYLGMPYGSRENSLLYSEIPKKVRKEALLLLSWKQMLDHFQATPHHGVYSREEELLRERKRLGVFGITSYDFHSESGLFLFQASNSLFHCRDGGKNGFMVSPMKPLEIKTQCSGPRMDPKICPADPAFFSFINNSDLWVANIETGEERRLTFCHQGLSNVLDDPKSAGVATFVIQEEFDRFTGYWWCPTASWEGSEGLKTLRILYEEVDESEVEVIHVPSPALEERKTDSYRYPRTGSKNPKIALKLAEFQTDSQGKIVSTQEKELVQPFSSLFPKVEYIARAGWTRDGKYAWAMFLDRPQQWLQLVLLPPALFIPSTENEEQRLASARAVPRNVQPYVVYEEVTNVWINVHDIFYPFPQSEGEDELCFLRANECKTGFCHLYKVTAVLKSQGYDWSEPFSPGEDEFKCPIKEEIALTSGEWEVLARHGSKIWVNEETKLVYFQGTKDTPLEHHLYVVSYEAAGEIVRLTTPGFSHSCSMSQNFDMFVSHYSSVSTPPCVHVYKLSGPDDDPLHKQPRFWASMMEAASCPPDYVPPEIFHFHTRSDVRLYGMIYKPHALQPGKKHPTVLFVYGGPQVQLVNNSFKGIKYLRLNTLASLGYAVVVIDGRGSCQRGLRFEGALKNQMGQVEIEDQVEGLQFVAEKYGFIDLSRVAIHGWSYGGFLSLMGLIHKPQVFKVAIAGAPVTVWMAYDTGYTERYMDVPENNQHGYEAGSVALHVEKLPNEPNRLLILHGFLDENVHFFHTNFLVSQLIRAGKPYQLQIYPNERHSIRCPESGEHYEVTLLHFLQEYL
T3 sequence (Q6V1X1 whole entry): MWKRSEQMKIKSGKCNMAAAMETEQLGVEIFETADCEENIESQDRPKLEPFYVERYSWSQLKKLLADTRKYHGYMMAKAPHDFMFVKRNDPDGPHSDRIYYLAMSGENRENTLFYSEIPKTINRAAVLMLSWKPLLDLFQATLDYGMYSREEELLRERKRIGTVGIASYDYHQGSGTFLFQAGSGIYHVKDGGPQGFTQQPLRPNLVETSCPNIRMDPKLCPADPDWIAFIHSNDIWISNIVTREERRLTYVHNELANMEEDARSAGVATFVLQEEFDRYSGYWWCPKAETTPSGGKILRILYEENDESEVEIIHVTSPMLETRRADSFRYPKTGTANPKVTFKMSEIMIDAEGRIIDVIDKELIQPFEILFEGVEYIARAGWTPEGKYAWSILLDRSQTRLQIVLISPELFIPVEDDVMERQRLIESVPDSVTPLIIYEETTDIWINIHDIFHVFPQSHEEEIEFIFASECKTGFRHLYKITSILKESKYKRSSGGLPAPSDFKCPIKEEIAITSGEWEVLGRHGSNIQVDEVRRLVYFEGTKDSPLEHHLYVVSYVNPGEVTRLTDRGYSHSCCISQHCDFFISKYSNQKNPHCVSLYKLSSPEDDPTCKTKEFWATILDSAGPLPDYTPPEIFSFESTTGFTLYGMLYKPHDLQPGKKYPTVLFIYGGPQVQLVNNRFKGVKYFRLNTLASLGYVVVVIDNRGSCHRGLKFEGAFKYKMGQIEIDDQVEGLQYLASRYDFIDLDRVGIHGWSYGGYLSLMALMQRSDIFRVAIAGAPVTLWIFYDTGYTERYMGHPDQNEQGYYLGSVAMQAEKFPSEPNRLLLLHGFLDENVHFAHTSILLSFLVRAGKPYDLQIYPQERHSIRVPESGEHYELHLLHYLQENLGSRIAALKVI
T5 sequence (P28843 37-760 limits assumed): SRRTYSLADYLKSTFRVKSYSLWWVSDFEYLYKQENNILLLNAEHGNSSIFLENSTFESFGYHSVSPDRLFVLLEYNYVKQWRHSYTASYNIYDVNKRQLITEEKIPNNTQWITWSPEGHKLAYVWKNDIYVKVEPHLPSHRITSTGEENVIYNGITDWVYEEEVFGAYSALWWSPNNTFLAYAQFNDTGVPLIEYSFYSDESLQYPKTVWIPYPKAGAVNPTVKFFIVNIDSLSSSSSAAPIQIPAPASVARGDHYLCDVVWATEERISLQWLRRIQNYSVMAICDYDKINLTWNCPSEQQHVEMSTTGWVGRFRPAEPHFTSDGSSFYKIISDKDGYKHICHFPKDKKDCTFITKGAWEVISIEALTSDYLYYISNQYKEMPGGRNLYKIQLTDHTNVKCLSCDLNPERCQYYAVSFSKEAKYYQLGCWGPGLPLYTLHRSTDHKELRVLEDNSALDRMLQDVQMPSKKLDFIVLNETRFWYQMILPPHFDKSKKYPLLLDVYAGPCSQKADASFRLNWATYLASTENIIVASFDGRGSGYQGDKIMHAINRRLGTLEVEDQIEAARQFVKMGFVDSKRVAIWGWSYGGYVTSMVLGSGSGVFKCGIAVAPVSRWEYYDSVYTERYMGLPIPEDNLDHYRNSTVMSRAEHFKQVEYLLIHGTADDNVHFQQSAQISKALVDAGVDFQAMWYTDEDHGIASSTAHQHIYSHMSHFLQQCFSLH
T1 sequence (P27487 29-766): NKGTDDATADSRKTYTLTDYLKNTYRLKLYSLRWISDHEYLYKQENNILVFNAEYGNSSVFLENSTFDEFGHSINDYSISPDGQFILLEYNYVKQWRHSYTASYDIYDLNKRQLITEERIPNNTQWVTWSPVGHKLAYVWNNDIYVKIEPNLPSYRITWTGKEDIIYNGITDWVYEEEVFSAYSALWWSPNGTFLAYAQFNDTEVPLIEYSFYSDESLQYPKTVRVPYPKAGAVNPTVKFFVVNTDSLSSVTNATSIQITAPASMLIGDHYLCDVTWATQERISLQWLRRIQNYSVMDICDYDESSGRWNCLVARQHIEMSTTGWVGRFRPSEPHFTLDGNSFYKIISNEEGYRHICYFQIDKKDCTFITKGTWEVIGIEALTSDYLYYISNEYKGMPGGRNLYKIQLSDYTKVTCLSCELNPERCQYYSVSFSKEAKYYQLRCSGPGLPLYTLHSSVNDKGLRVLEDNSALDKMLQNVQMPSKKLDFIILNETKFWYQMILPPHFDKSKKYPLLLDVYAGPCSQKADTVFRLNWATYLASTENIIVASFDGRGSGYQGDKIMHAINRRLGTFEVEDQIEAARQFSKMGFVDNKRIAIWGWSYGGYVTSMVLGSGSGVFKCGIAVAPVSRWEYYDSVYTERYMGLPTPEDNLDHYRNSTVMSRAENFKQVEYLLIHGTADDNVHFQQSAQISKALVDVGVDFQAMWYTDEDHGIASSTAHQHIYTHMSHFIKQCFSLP

IC50 (human DPP IV): 0.016 µM
IC50 (Human DPP 9): 78.5 µM
IC50 (human DPP 8): 63.2 µM
DPP 7 IC50 [1]: N.I.
IC50 (FAP): 118 µM
Structure (SMILES): CCCCNC(=O)c1cc2nc(N3CCC[C@@H](N)C3)n(Cc3ccccc3C#N)c(=O)c2s1 [Compound 117, (R)-2-(3-aminopiperidin-1-yl)-N-butyl-3-(2-cyanobenzyl)-4-oxo-3,4-dihydrothieno[3,2-d]pyrimidine-6-carboxamide]

IC50 (human DPP IV): 0.0185 µM
DPP 9 IC50 (Human DPP 9): N.I.
IC50 (human DPP 8): 83.6 µM
DPP 7 IC50 [1]: N.I.
IC50 (FAP): 80.2 µM
Structure (SMILES): N#Cc1ccccc1Cn1c(N2CCC[C@@H](N)C2)nc2cc(C(=O)N3CCOCC3)sc2c1=O [Compound 118, (R)-2-((2-(3-aminopiperidin-1-yl)-6-(morpholine-4-carbonyl)-4-oxothieno-[3,2-d]pyrimidin-3(4H)-yl)methyl)-benzonitrile]

IC50 (human DPP IV): 0.0206 µM
DPP 9 IC50 (Human DPP 9): N.I.
IC50 (human DPP 8): 94 µM
DPP 7 IC50 [1]: N.I.
IC50 (FAP): 113 µM
Structure (SMILES): N#Cc1ccccc1Cn1c(N2CCC[C@@H](N)C2)nc2cc(C(=O)NC3CCCCC3)sc2c1=O [Compound 119, (R)-2-(3-aminopiperidin-1-yl)-3-(2-cyanobenzyl)-N-cyclohexyl-4-oxo-3,4-dihydrothieno[3,2-d]pyrimidine-6-carboxamide]

IC50 (human DPP IV): 0.0286 µM
IC50 (Human DPP 9): 49.7 µM
IC50 (human DPP 8): 53.8 µM
DPP 7 IC50 [1]: N.I.
IC50 (FAP): 87.4 µM
Structure (SMILES): N#Cc1ccccc1Cn1c(N2CCC[C@@H](N)C2)nc2cc(C(=O)NCc3cccc(C(F)(F)F)c3)sc2c1=O [Compound 120, (R)-2-(3-aminopiperidin-1-yl)-3-(2-cyanobenzyl)-4-oxo-N-(3-(trifluoromethyl)benzyl)-3,4-dihydrothieno[3,2-d]pyrimidine-6-carboxamide]

IC50 (human DPP IV): 0.0269 µM
DPP 9 IC50 (Human DPP 9): N.I.
DPP 8 IC50 (human DPP 8): N.I.
DPP 7 IC50 [1]: N.I.
FAP IC50 (FAP): N.I.
Structure (SMILES): CC(C)CCNC(=O)c1cc2nc(N3CCC[C@@H](N)C3)n(Cc3ccccc3C#N)c(=O)c2s1 [Compound 121, (R)-2-(3-aminopiperidin-1-yl)-3-(2-cyanobenzyl)-N-isopentyl-4-oxo-3,4-dihydrothieno[3,2-d]pyrimidine-6-carboxamide]

IC50 (human DPP IV): 0.0263 µM
IC50 (Human DPP 9): 53.1 µM
DPP 8 IC50 (human DPP 8): N.I.
DPP 7 IC50 [1]: N.I.
FAP IC50 (FAP): N.I.
Structure (SMILES): Cc1ccc(CNC(=O)c2cc3nc(N4CCC[C@@H](N)C4)n(Cc4ccccc4C#N)c(=O)c3s2)cc1 [Compound 122, (R)-2-(3-aminopiperidin-1-yl)-3-(2-cyanobenzyl)-N-(4-methylbenzyl)-4-oxo-3,4-dihydrothieno[3,2-d]-pyrimidine-6-carboxamide]

Structure (SMILES): N#Cc1ccccc1Cn1c(N2CCC[C@@H](N)C2)nc2c(CO)csc2c1=O [DC291004]
hypoglycemic ability in vivo, oral glucose tolerance test (normal ICR mouse): comparable to that of Alogliptin
DPP IV activity of ICR mouse plasma after single dose (given as hypoglycemic ability in vivo) (DPP IV): comparable to that of Alogliptin (3 mg), and better than that of Vildagliptin (LAF237, 15 mg)
body weight and viscera index versus normal control group (in words) ([2]; ICR mouse, 100 mg/kg single dose): no statistical difference
acute toxicity ([2]; ICR mouse, 100 mg/kg single dose by gavage, one week): did not reflect obvious acute toxicity
kidney index versus normal control group (in words) ([2]; ICR mouse, 100 mg/kg, 7th day after administration): did not significantly differ
Kidney index [2, 3]: 1.5 ± 0.1%
Liver index [2, 3]: 5.3 ± 0.3%
Spleen index [2, 3]: 0.4 ± 0.0%
body weight [2, 4]: 30.3 ± 1.0 g
food consumption [2, 4]: 18.7 g · day^−1 · cage^−1
body weight [2, 5]: 30.8 ± 0.9 g
food consumption [2, 5]: 21.0 g · day^−1 · cage^−1
body weight [2, 6]: 31.0 ± 1.2 g
food consumption [2, 6]: 21.1 g · day^−1 · cage^−1
body weight [2, 7]: 31.6 ± 1.2 g
food consumption [2, 7]: 21.5 g · day^−1 · cage^−1
body weight [2, 8]: 32.0 ± 1.6 g
food consumption [2, 8]: 21.9 g · day^−1 · cage^−1
body weight [2, 9]: 32.0 ± 1.2 g
food consumption [2, 9]: 21.5 g · day^−1 · cage^−1
body weight [2, 10]: 32.5 ± 1.3 g
food consumption [2, 10]: 24.1 g · day^−1 · cage^−1
body weight [2, 11]: 30.2 ± 0.7 g
food consumption [2, 11]: 22.5 g · day^−1 · cage^−1

Structure (SMILES): N#Cc1ccccc1Cn1c(N2CCC[C@@H](N)C2)nc2c(CN3CCOCC3)csc2c1=O [DC291005]
DPP IV activity of ICR mouse plasma after single dose (given as hypoglycemic ability in vivo) (DPP IV): comparable to that of Alogliptin (3 mg), and better than that of Vildagliptin (LAF237, 15 mg)

Structure (SMILES): CCOC(=O)CNC(=O)c1csc2c(=O)n(Cc3ccccc3C#N)c(N3CCC[C@@H](N)C3)nc12 [DC291010]
DPP IV activity of ICR mouse plasma after single dose (given as hypoglycemic ability in vivo) (DPP IV): comparable to that of Alogliptin (3 mg), and better than that of Vildagliptin (LAF237, 15 mg)

Structure (SMILES): N#Cc1ccccc1Cn1c(N2CCC[C@@H](N)C2)nc2c(C(=O)NC3CCOCC3)csc2c1=O [DC291034]
hypoglycemic ability in vivo, oral glucose tolerance test (normal ICR mouse): comparable to that of Alogliptin

Structure (SMILES): N#Cc1ccccc1Cn1c(N2CCC[C@@H](N)C2)nc2c(C#N)csc2c1=O [DC291036]
hypoglycemic ability in vivo, oral glucose tolerance test (normal ICR mouse): comparable to that of Alogliptin

Structure (SMILES): CCOC(=O)CCNC(=O)c1csc2c(=O)n(Cc3ccccc3C#N)c(N3CCC[C@@H](N)C3)nc12 [DC291041]
DPP IV activity of ICR mouse plasma after single dose (given as hypoglycemic ability in vivo) (DPP IV): comparable to that of Alogliptin (3 mg), and better than that of Vildagliptin (LAF237, 15 mg)

Structure (SMILES): N#Cc1ccccc1Cn1c(N2CCC[C@@H](N)C2)nc2cc(COCc3ccccc3)sc2c1=O [DC291402]
hypoglycemic ability in vivo, oral glucose tolerance test (normal ICR mouse): comparable to that of Alogliptin
DPP IV activity of ICR mouse plasma after single dose (given as hypoglycemic ability in vivo) (DPP IV): comparable to that of Alogliptin (3 mg), and better than that of Vildagliptin (LAF237, 15 mg)

Structure (SMILES): CC(=O)OCc1cc2nc(N3CCC[C@@H](N)C3)n(Cc3ccccc3C#N)c(=O)c2s1 [DC291405]
DPP IV activity of ICR mouse plasma after single dose (given as hypoglycemic ability in vivo) (DPP IV): comparable to that of Alogliptin (3 mg), and better than that of Vildagliptin (LAF237, 15 mg)

Structure (SMILES): N#Cc1ccccc1Cn1c(N2CCC[C@@H](N)C2)nc2cc(CO)sc2c1=O [DC291408]
DPP IV activity of ICR mouse plasma after single dose (given as hypoglycemic ability in vivo) (DPP IV): comparable to that of Alogliptin (3 mg), and better than that of Vildagliptin (LAF237, 15 mg)

Structure (SMILES): N#Cc1ccccc1Cn1c(N2CCC[C@@H](N)C2)nc2cc(C(=O)N3CCCCC3)sc2c1=O [DC291422]
DPP IV activity of ICR mouse plasma after single dose (given as hypoglycemic ability in vivo) (DPP IV): comparable to that of Alogliptin (3 mg), and better than that of Vildagliptin (LAF237, 15 mg)
